Test results as given in the supplement of paper PMC10307832.

Columns and labels:
Experiment in all cases: relative viability (nuclei count vs DMSO), 5 days (fraction); higher = more cells survive
[1] = compound: CN[C@@H]1C[C@H]2O[C@@](C)([C@@H]1OC)n1c3ccccc3c3c4c(c5c6ccccc6n2c5c31)C(=O)NC4 [Staurosporine] + CC(C)C[C@H](NC(=O)[C@H](Cc1ccccc1)NC(=O)c1cnccn1)B(O)O [Bortezomib] (partner 0.002 µM)
How it was run: (§1)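 After 5 days of treatment, lung cancer cells in 1536-well plates were fixed and stained in a single step (final 0.05% Triton X-100, 1% formaldehyde, 1 ug/ml Hoechst) and their nuclei counted on 4× images. Treatment had been applied by pin tool the day after seeding as one drug alone or as a fixed anchor-drug dose with five library-drug doses (not always all listed) in √10 steps. Relative viability is the nuclei count of treated wells divided by that of vehicle wells, and values are medians of duplicate plates.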

Sulindac + Decitabine = compound: CC1=C(CC(=O)O)c2cc(F)ccc2/C1=C\c1ccc([S+](C)[O-])cc1 [Sulindac] + Nc1ncn([C@H]2C[C@H](O)[C@@H](CO)O2)c(=O)n1 [Decitabine] (partner 2 µM)
How it was run: as §1

[2] = compound: CN[C@@H]1C[C@H]2O[C@@](C)([C@@H]1OC)n1c3ccccc3c3c4c(c5c6ccccc6n2c5c31)C(=O)NC4 [Staurosporine] + COc1cc2c(Oc3ccc(NC(=O)C4(C(=O)Nc5ccc(F)cc5)CC4)cc3F)ccnc2cc1OCCCN1CCOCC1 [Foretinib] (partner 0.25 µM)
How it was run: as §1

Cell Line	relative viability ([1]; first compound 0.005 µM)	relative viability ([1]; first compound 0.05 µM)	relative viability ([1]; first compound 0.1581 µM)	relative viability ([1]; first compound 0.5 µM)	relative viability (Sulindac + Decitabine; first compound 0.08 µM)	relative viability (Sulindac + Decitabine; first compound 0.253 µM)	relative viability (Sulindac + Decitabine; first compound 0.8 µM)	relative viability (Sulindac + Decitabine; first compound 2.53 µM)	relative viability (Sulindac + Decitabine; first compound 8 µM)	relative viability ([2]; first compound 0.01581 µM)	relative viability ([2]; first compound 0.05 µM)	relative viability ([2]; first compound 0.1581 µM)	relative viability ([2]; first compound 0.5 µM)	relative viability ([1]; first compound 0.01581 µM)	relative viability ([2]; first compound 0.005 µM)
NCI-H1915	1.04	0.327	0.118	0.154	0.229	0.268	0.266	0.261	0.27	0.542	0.552	0.283	0.278		
NCI-H1563	0.655	0.661	0.501	0.438						0.612	0.575	0.611	0.463	0.571	0.696
NCI-H650	0.504	0.315	0.212	0.206	0.33	0.325	0.341	0.284	0.339	0.273	0.257	0.289	0.256	0.283	0.687
NCI-H2126	1.1	0.777	0.371	0.387	0.623	0.627	0.543	0.553	0.549	0.69	0.634	0.613	0.297	0.817	1.35
NCI-H838	0.289	0.133	0.15	0.0919	0.497	0.476	0.425	0.45	0.507	0.228	0.208	0.185	0.0995	0.0982	0.51
NCI-H2342					0.681	0.706	0.591	0.648	0.786	0.816	0.486	0.516	0.4		1.01
EMC-BAC-2	0.564	0.224	0.178	0.137	0.994	1	0.888	0.934	1.08	0.344	0.252	0.23	0.106	0.564	0.397
NCI-H1355	1.09	0.259	0.202	0.209	0.325	0.343	0.366	0.338	0.366	0.415	0.468	0.221	0.221	0.693	0.963
NCI-H2347	1.21	0.359	0.413	0.402	0.609	0.632	0.548	0.652	0.636	0.588	0.374	0.289	0.422	0.443	1.04
NCI-H1651	0.997	0.661	0.368	0.349	0.748	0.702	0.578	0.568	0.617	0.615	0.346	0.259	0.0644	0.772	0.74
NCI-H1993		0.463	0.483	0.315	0.558	0.298	0.454	0.61	0.627	0.701	0.586	0.535	0.489	0.44	0.818
